This series in a line: Solubility evaluation at room temperature in methyl benzoate and ethyl benzoate. It is filed as physicochemical. Particulars: for solubility: room temperature, concentration of 2 wt %. As to the method:
The solubility of each of the compound prepared in the synthesis examples and the comparative compound [BH1] was measured at room temperature in methyl benzoate and ethyl benzoate. The case in which all the components were dissolved at a concentration of 2 wt % was evaluated as O, and the case in which all the components were not dissolved was evaluated as X, and the results are shown in the following Table 1.

As to `CC(C)c1cc(-c2c3ccccc3c(-c3cc4ccccc4c4ccccc34)c3ccccc23)cc(C(C)C)c1` [Compound 46], the solubility result by setting is: (ethyl benzoate) “◯”; (methyl benzoate) “◯”.

As for `c1ccc2c(-c3c4ccccc4c(-c4cccc5ccccc45)c4ccccc34)cccc2c1` [BH1, reference compound], the “solubility with respect to methyl benzoate” value is below 2 wt %.

Consider `[2H]c1c([2H])c([2H])c(-c2c3ccccc3c(-c3c(CCC)c4ccccc4c4ccccc34)c3ccccc23)c([2H])c1[2H]` [Compound 55], for which the solubility result is given as “◯” (ethyl benzoate) and “◯” (methyl benzoate).
